Converted amounts (≈) assume the structure as drawn. Where two headings read alike, the source gives them in different places. One block for each compound: values may come before it. Starred links: 1 amine or outer side, 2 acyl side, 3 side chain; linkers in the order of their positions; H or OH if unused. Positions of bridges follow the written chain, without caps; N, C: chain ends. Residues, ends and D or L forms follow the SMILES beside them. *: point of attachment. C20 diacid = O=C(O)CCCCCCCCCCCCCCCCCCC(=O)*; γGlu = O=C(O)[C@H](CCC(=O)[*:2])N[*:1]
What was measured:
[1] = molecular target: T1, human amylin receptor (amylin 3(a) receptor: human calcitonin receptor + RAMP-3) (Homo sapiens, UniProt O60896+P30988); experiment: Assay (II)a functional CRE-luciferase assay, human amylin receptor; type: cell-based
T1 construct: expressed in transfected cells; host or cells: BHK570
T1 sequence (P30988 25-474): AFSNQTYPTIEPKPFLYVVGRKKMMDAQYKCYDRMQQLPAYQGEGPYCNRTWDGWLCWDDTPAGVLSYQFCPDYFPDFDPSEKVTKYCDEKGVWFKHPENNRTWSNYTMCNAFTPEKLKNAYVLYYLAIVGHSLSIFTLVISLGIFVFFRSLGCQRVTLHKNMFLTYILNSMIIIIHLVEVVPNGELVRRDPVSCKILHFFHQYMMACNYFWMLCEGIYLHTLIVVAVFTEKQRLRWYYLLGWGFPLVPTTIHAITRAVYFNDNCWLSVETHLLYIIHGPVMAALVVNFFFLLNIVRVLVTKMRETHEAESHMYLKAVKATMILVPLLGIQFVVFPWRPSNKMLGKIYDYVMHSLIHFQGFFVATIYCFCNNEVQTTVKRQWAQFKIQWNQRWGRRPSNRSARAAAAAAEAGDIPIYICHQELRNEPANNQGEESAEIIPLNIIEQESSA
T1 sequence (O60896 24-148 partner): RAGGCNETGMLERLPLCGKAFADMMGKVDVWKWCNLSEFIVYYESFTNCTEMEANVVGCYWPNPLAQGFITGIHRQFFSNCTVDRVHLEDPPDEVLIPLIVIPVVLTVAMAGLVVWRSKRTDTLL
From the text: (§1) 1. Luciferase Assay Outline
(§2) Activation of calcitonin and amylin (coexpression of calcitonin receptor and receptor activity modifying proteins (RAMP)) receptors lead to increased intracellular concentrations of cAMP. Consequently, transcription is activated by promoters containing multiple copies of the cAMP response element (CRE). It is thus possible to measure amylin activity by the use of a CRE luciferase reporter gene introduced into BHK cells also expressing calcitonin or amylin receptors.
(§3) A BHK570 cell line was stably transfected with the human calcitonin receptor and a CRE-responsive luciferase reporter gene. The cell line was further transfected with RAMP-3, using standard methods. This turns the calcitonin receptor into an amylin 3(a) receptor. Methotrexate, Neomycin, and Hygromycin are selection markers for luciferase, the calcitonin receptor, and RAMP-3, respectively.
(§4) To perform activity assays, BHK calcitonin (a) receptor- or amylin 3(a)-receptor/CRE-luc cells were seeded in white 96 well culture plates at a density of about 20.000 cells/well. […] Further, 50 μl/well of standard or sample in assay buffer were added. After 3 hours incubation at 37° C. and 5% CO2, the assay medium with standard or sample were removed and replaced by 100 μl/well PBS. Further, 100 μl/well LucLite™ was added. The plates were sealed and incubated at room temperature for 30 minutes. Finally, luminescence was measured on a TopCounter (Packard) in SPC (single photon counting) mode.

[2] = molecular target: T2, human calcitonin receptor (Homo sapiens, UniProt P30988); experiment: Assay (II)a functional CRE-luciferase assay, human calcitonin receptor; type: cell-based
T2 construct: expressed in transfected cells; host or cells: BHK570
T2 sequence (P30988 25-474): T1 sequence (P30988 25-474)
From the text: as §1, §2, §3, §4

[3] = Assay (IV) determination of solubility; type: physicochemical
Summary of the method: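 Stock ~500 nmol/ml in water; 1:1 with 100 mM buffer, pH 3.0–8.0 (glycylglycine ≤5.0, bistrispropane ≥6.0); 18 h RT; spin; HPLC quantitation of soluble polypeptide.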

[4] = Table 7, human calcitonin (CTa) receptor

EC50 ([1]; Table 2, BHK amylin 3(a)-receptor/CRE-luc cells): 0.083 nM
EC50 [2, 4]: 0.125 nM
solubility at 18 h ([3]; bistrispropane buffer, pH 7.5, pH 7.5, read-out: Solubility pH 7.5): 56 µM (≈ 249 µg/mL)
solubility at 18 h ([3]; bistrispropane buffer, pH 8, pH 8.0, read-out: Solubility pH 8.0): 134 µM (≈ 596 µg/mL)
solubility at 18 h ([3]; glycylglycine buffer, pH 3, pH 3.0, read-out: Solubility pH 3.0): > 200 µM
solubility at 18 h ([3]; glycylglycine buffer, pH 4, pH 4.0, 18 hours at room temperature, Table 2, read-out: Solubility pH 4.0): > 200 µM
solubility at 18 h ([3]; glycylglycine buffer, pH 4, pH 4.0, read-out: Solubility pH 4.0): > 200 µM
solubility at 18 h ([3]; pH 5.0, read-out: Solubility pH 5.0): 10 µM (≈ 44.5 µg/mL)
solubility at 18 h ([3]; pH 6.0, read-out: Solubility pH 6.0): 1 µM (≈ 4.45 µg/mL)
solubility at 18 h ([3]; pH 6.5, read-out: Solubility pH 6.5): 1 µM (≈ 4.45 µg/mL)
solubility at 18 h ([3]; pH 7.0, read-out: Solubility pH 7.0): 10 µM (≈ 44.5 µg/mL)
Compound: CC[C@H](C)[C@H](NC(=O)[C@@H]1CCCN1C(=O)CNC(=O)[C@H](Cc1ccccc1)NC(=O)[C@H](CC(N)=O)NC(=O)[C@H](CC(N)=O)NC(=O)[C@H](CO)NC(=O)[C@H](CO)NC(=O)[C@H](CCCNC(=N)N)NC(=O)[C@@H](NC(=O)[C@H](CC(C)C)NC(=O)[C@H](Cc1ccccc1)NC(=O)[C@H](CCC(=O)O)NC(=O)[C@H](C)NC(=O)[C@H](CC(C)C)NC(=O)[C@H](CCCNC(=N)N)NC(=O)[C@H](CCC(N)=O)NC(=O)[C@@H](NC(=O)[C@H](C)NC(=O)[C@@H]1CSSC[C@H](NC(=O)[C@H](Cc2cnc[nH]2)NC(=O)CC[C@H](NC(=O)CCCCCCCCCCCCCCCCCCC(=O)O)C(=O)O)C(=O)N[C@@H](CC(N)=O)C(=O)N[C@@H]([C@@H](C)O)C(=O)N[C@@H](C)C(=O)N[C@@H]([C@@H](C)O)C(=O)N1)[C@@H](C)O)C(C)C)C(=O)N[C@@H](CC(C)C)C(=O)N1CCC[C@H]1C(=O)N1CCC[C@H]1C(=O)N[C@H](C(=O)N[C@@H](CC(N)=O)C(=O)N[C@H](C(=O)NCC(=O)N[C@@H](CO)C(=O)N[C@@H](CC(N)=O)C(=O)N[C@H](C(=O)N[C@@H](Cc1ccc(O)cc1)C(N)=O)[C@@H](C)O)C(C)C)[C@@H](C)O [Example 15, N-alpha-[(S)-4-Carboxy-4-(19-carboxynonadecanoylamino)butyryl]-[His1,Glu14,Arg18]-pramlintide] ({C20 diacid-γGlu}-HCNTATCATQRLAEFLVRSSNNFGPILPPTNVGSNTY-NH2; disulfide 2-7)

EC50 ([1]; Table 6, human amylin receptor): 0.043 nM
EC50 [2, 4]: 0.041 nM
Compound: CC[C@H](C)[C@H](NC(=O)[C@@H]1CCCN1C(=O)CNC(=O)[C@H](Cc1ccccc1)NC(=O)[C@H](CC(N)=O)NC(=O)[C@H](CC(N)=O)NC(=O)[C@H](CO)NC(=O)[C@H](CO)NC(=O)[C@H](Cc1c[nH]cn1)NC(=O)[C@H](CCCNC(=N)N)NC(=O)[C@H](CC(C)C)NC(=O)[C@H](Cc1ccccc1)NC(=O)[C@H](CCC(=O)O)NC(=O)[C@H](C)NC(=O)[C@H](CC(C)C)NC(=O)[C@H](CCCNC(=N)N)NC(=O)[C@H](CCC(N)=O)NC(=O)[C@@H](NC(=O)[C@H](C)NC(=O)[C@@H]1CSSC[C@H](NC(=O)[C@H](CCCNC(=N)N)NC(=O)CNC(=O)CC[C@H](NC(=O)CCCCCCCCCCCCCCCCCCC(=O)O)C(=O)O)C(=O)N[C@@H](CC(N)=O)C(=O)N[C@@H]([C@@H](C)O)C(=O)N[C@@H](C)C(=O)N[C@@H]([C@@H](C)O)C(=O)N1)[C@@H](C)O)C(=O)N[C@@H](CC(C)C)C(=O)N1CCC[C@H]1C(=O)N1CCC[C@H]1C(=O)N[C@H](C(=O)N[C@@H](CC(N)=O)C(=O)N[C@H](C(=O)NCC(=O)N[C@@H](CO)C(=O)N[C@@H](CC(N)=O)C(=O)N[C@H](C(=O)N1CCC[C@H]1C(N)=O)[C@@H](C)O)C(C)C)[C@@H](C)O [Example 153, N-alpha-[(S)-4-Carboxy-4-(19-carboxynonadecanoylamino)butyryl]-Gly-[Arg1,Glu14,Arg17,Pro37]-pramlintide] ({C20 diacid-γGlu}-GRCNTATCATQRLAEFLRHSSNNFGPILPPTNVGSNTP-NH2; disulfide 3-8 (inferred))

EC50 ([1]; Table 6, human amylin receptor): 0.602 nM
EC50 ([2]; Table 11, read-out: CTa receptor human EC50): 4.3 nM
Compound: CC[C@H](C)[C@H](NC(=O)[C@@H]1CCCN1C(=O)CNC(=O)[C@H](Cc1ccccc1)NC(=O)[C@H](CC(N)=O)NC(=O)[C@H](CC(N)=O)NC(=O)[C@H](CO)NC(=O)[C@H](CO)NC(=O)[C@H](CCCNC(=N)N)NC(=O)[C@H](Cc1c[nH]cn1)NC(=O)[C@H](CC(C)C)NC(=O)[C@H](Cc1ccccc1)NC(=O)[C@H](CCC(=O)O)NC(=O)[C@H](C)NC(=O)[C@H](CC(C)C)NC(=O)[C@H](CCCNC(=N)N)NC(=O)[C@H](CCC(N)=O)NC(=O)[C@@H](NC(=O)[C@H](CCC(=O)O)NC(=O)[C@@H]1CSSC[C@H](NC(=O)[C@H](Cc2c[nH]cn2)NC(=O)CC[C@H](NC(=O)CCCCCCCCCCCCCCCCCCC(=O)O)C(=O)O)C(=O)N[C@@H](CC(N)=O)C(=O)N[C@@H]([C@@H](C)O)C(=O)N[C@@H](C)C(=O)N[C@@H]([C@@H](C)O)C(=O)N1)[C@@H](C)O)C(=O)N[C@@H](CC(C)C)C(=O)N1CCC[C@H]1C(=O)N1CCC[C@H]1C(=O)N[C@H](C(=O)N[C@@H](CC(N)=O)C(=O)N[C@H](C(=O)NCC(=O)N[C@@H](CO)C(=O)N[C@@H](CC(N)=O)C(=O)N[C@H](C(=O)N[C@@H](Cc1ccc(O)cc1)C(N)=O)[C@@H](C)O)C(C)C)[C@@H](C)O [Example 2, N-alpha-[(S)-4-Carboxy-4-(19-carboxynonadecanoylamino)butyryl]-[His1,Glu8,Glu14,His17,Arg18]-pramlintide] ({C20 diacid-γGlu}-HCNTATCETQRLAEFLHRSSNNFGPILPPTNVGSNTY-NH2; disulfide 2-7 (inferred))

EC50 ([1]; Table 7, human amylin receptor): 0.129 nM
EC50 [2, 4]: 0.453 nM
Compound: CC[C@H](C)[C@H](NC(=O)[C@@H]1CCCN1C(=O)CNC(=O)[C@H](Cc1ccccc1)NC(=O)[C@H](CC(N)=O)NC(=O)[C@H](CC(N)=O)NC(=O)[C@H](CO)NC(=O)[C@H](CO)NC(=O)[C@H](Cc1c[nH]cn1)NC(=O)[C@H](CCCNC(=N)N)NC(=O)[C@H](CC(C)C)NC(=O)[C@H](Cc1ccccc1)NC(=O)[C@H](CCCNC(=N)N)NC(=O)[C@H](C)NC(=O)[C@H](CC(C)C)NC(=O)[C@H](CCCNC(=N)N)NC(=O)[C@H](CCC(N)=O)NC(=O)[C@@H](NC(=O)[C@H](C)NC(=O)[C@@H]1CSSC[C@H](NC(=O)[C@H](CCCCN)NC(=O)CC[C@H](NC(=O)CCCCCCCCCCCCCCCCCCC(=O)O)C(=O)O)C(=O)N[C@@H](CC(N)=O)C(=O)N[C@@H]([C@@H](C)O)C(=O)N[C@@H](C)C(=O)N[C@@H]([C@@H](C)O)C(=O)N1)[C@@H](C)O)C(=O)N[C@@H](CC(C)C)C(=O)N1CCC[C@H]1C(=O)N1CCC[C@H]1C(=O)N[C@H](C(=O)N[C@@H](CC(N)=O)C(=O)N[C@H](C(=O)NCC(=O)N[C@@H](CO)C(=O)N[C@@H](CC(N)=O)C(=O)N[C@H](C(=O)N1CCC[C@H]1C(N)=O)[C@@H](C)O)C(C)C)[C@@H](C)O [Example 152, N-alpha-[(S)-4-Carboxy-4-(19-carboxynonadecanoylamino)butyryl]-[Arg14,Arg17,Pro37]-pramlintide] ({C20 diacid-γGlu}-KCNTATCATQRLARFLRHSSNNFGPILPPTNVGSNTP-NH2; disulfide 2-7 (inferred); C-terminus assumed)
